Measured values as given in USRE38520E1, “Erythromycin derivatives, method for preparing same, and use thereof as drugs” (Aventis Pharma S.A., priority 1996, dated 2004).

Key:
Assay in all cases: Method of dilutions in liquid medium (M.I.C.)
Assay type in all cases: cell-based
Details in all cases: incubation twenty-four hours at 37° C.
[1] = tested on: Streptoccocus aritis 02mmGR01
Experimental: (§1) Method of Dilutions in Liquid Medium A series of tubes were prepared into which the same quantity of sterile nutritive medium is distributed. Increasing quantities of the product to be studied are distributed into each tube, then each tube is seeded with a bacterial strain. After incubation for twenty-four hours in a heating chamber at 37° C., the growth inhibition is evaluated by transillumination, which permits the minimal inhibitory concentrations (M.I.C.) to be determined, expressed in micrograms/cm^3.

[2] = tested on: Staphylococtus aureus 011UC4
Experimental: as §1

[3] = tested on: Streptoccocus faecalis group C 02D2UCI
Experimental: as §1

[4] = tested on: Streptoccocus pyogenes group A 02A1UCI
Experimental: as §1

[5] = tested on: Streptoccocus agalactae group B 02B1UTI
Experimental: as §1

[6] = tested on: Streptoccocus pneumoniae 031515
Experimental: as §1

[7] = tested on: Streptoccocus aritis 02mmCH1
Experimental: as §1

[8] = tested on: Streptoccocus sp. group G 02GRGR5
Experimental: as §1

[9] = tested on: Streptoccocus agalactae group B 02B1811
Experimental: as §1

[10] = tested on: Streptoccocus faecium group D 02D2UCI
Experimental: as §1

With “11,12-dideoxy-3-de((2,6-dideoxy-3-C-methyl-3-O-methyl-alpha-L-ribohexopyranosyl)oxy)-3-hydroxy-6-O-methyl-12,11-(oxycarbonyl(2-(3-(4-quinolinyl)propyl)hydrazono)) erythromycin [Ex. 1]” the “minimal inhibitory concentrations (M.I.C.)” value [1] was 0.15 micrograms/cm^3, the “minimal inhibitory concentrations (M.I.C.)” value [2] was 0.3 micrograms/cm^3 and the “minimal inhibitory concentrations (M.I.C.)” value [3] was 0.04 micrograms/cm^3. The “minimal inhibitory concentrations (M.I.C.)” value [4] was 0.04 micrograms/cm^3, the “minimal inhibitory concentrations (M.I.C.)” value [5] was “≦0.02 micrograms/cm^3” and the “minimal inhibitory concentrations (M.I.C.)” value [6] was 0.6 micrograms/cm^3. For the same compound, the “minimal inhibitory concentrations (M.I.C.)” value [7] was 0.3 micrograms/cm^3, the “minimal inhibitory concentrations (M.I.C.)” value [8] was 0.04 micrograms/cm^3 and the “minimal inhibitory concentrations (M.I.C.)” value [9] was 0.6 micrograms/cm^3. The “minimal inhibitory concentrations (M.I.C.)” value [10] was 0.04 micrograms/cm^3.

CC[C@H]1OC(=O)[C@H](C)[C@@H](O)[C@H](C)[C@@H](O[C@@H]2O[C@H](C)C[C@H](N(C)C)[C@H]2O)[C@](C)(OC)C[C@@H](C)C(=O)[C@H](C)[C@H]2N(CCCCn3cnc(-c4cccnc4)c3)C(=O)O[C@]12C [Ex. 2, 11,12-dideoxy-3-d((2,6-dideoxy-3-C-methyl-3-O-methyl-alpha-L-ribohexopyranosyl)oxy)-3-hydroxy-6-O-methyl-12,11-(oxycarbonyl((4-(4-(3-pyridinyl)-1H-imidazol-1-yl)-butyl)imino))-erythromycin] was tested, and the “minimal inhibitory concentrations (M.I.C.)” value [1] was 0.6 micrograms/cm^3, the “minimal inhibitory concentrations (M.I.C.)” value [3] was 0.3 micrograms/cm^3 and the “minimal inhibitory concentrations (M.I.C.)” value [4] was 0.15 micrograms/cm^3. For the same compound, the “minimal inhibitory concentrations (M.I.C.)” value [5] was 0.04 micrograms/cm^3, the “minimal inhibitory concentrations (M.I.C.)” value [6] was 1 micrograms/cm^3 and the “minimal inhibitory concentrations (M.I.C.)” value [7] was 0.34 micrograms/cm^3. For the same compound, the “minimal inhibitory concentrations (M.I.C.)” value [8] was 0.15 micrograms/cm^3, the “minimal inhibitory concentrations (M.I.C.)” value [9] was 1.2 micrograms/cm^3 and the “minimal inhibitory concentrations (M.I.C.)” value [10] was 0.3 micrograms/cm^3.
